Values joined by “and” are separate entries in the source; they are usually repeats but may differ in a detail not shown here. Equal entries are not always repeated. Inconclusive results and toxic doses are left out. *1 amine or outer side, *2 acyl side, *3 side chain or, on linkers, in order; H or OH if unused. Where a SMILES comes first, the peptide text is derived from it. Bridges are numbered along the chain shown (N, C = ends). Roman numbers before positions name the chains, in order. [ ]: non-standard residue; d: D form. Actinocin(9to1) = Cc1c2oc3c(C)ccc(C(=O)[*:1])c3nc-2c(C(=O)[*:2])c(N)c1=O; aThr = C[C@H](O)[C@H](N)C(=O)O; NMeV = CN[C@H](C(=O)O)C(C)C; Sar = CNCC(=O)O
Test system: BDF1 mice, P329 reticulum cell sarcoma ip, survival T/C
Assay: NCI In Vivo Anticancer Drug Screen. Data for tumor model P329 Reticulum Cell Sarcoma (intraperitoneal) in B6D2F1 (BDF1) mice
Details: endpoint: median survival time, higher = longer survival
Description: The antitumor activity of compounds was measured in mice bearing transplantable tumors. Survival or tumor size were measured and the results are expressed as the measurement made in the treated group (T) divided by the measurement made in the vehicle treated control group (C). The tumor model used in this assay is P329 Reticulum Cell Sarcoma (intraperitoneal) in B6D2F1 (BDF1) mice

[1] = dose: 4.0 mg/kg/injection, schedule: Q01DX010 (ip), vehicle: saline
[2] = dose: 8.0 mg/kg/injection, schedule: Q01DX010 (ip), vehicle: saline
[3] = dose: 16.0 mg/kg/injection, schedule: Q01DX010 (ip), vehicle: saline
[4] = dose: 6.0 mg/kg/injection, schedule: Q01DX010 (ip), vehicle: saline
[5] = dose: 10.0 mg/kg/injection, schedule: Q01DX010 (ip), vehicle: saline
[6] = dose: 20.0 mg/kg/injection, schedule: Q01DX010 (ip), vehicle: saline
[7] = dose: 40.0 mg/kg/injection, schedule: Q01DX010 (ip), vehicle: saline
[8] = dose: 80.0 mg/kg/injection, schedule: Q01DX010 (ip), vehicle: saline
[9] = dose: 120.0 mg/kg/injection, schedule: Q01DX010 (ip), vehicle: saline
[10] = dose: 25.0 mg/kg/injection, schedule: Q01DX010 (ip), vehicle: saline
[11] = dose: 100.0 mg/kg/injection, schedule: Q01DX010 (ip), vehicle: saline
[12] = dose: 5.0 mg/kg/injection, schedule: Q01DX010 (ip), vehicle: saline
[13] = dose: 50.0 mg/kg/injection, schedule: Q01DX010 (ip), vehicle: saline
[14] = dose: 1.25 mg/kg/injection, schedule: Q01DX010 (ip), vehicle: saline
[15] = dose: 2.5 mg/kg/injection, schedule: Q01DX010 (ip), vehicle: saline
[16] = dose: 12.5 mg/kg/injection, schedule: Q01DX010 (sc), vehicle: steriod suspending solution
[17] = dose: 25.0 mg/kg/injection, schedule: Q01DX010 (sc), vehicle: steriod suspending solution
[18] = dose: 50.0 mg/kg/injection, schedule: Q01DX010 (sc), vehicle: steriod suspending solution
[19] = dose: 6.25 mg/kg/injection, schedule: Q01DX010 (ip), vehicle: saline
[20] = dose: 12.5 mg/kg/injection, schedule: Q01DX010 (ip), vehicle: saline

O=C(Nc1ccc(NC2=NCCN2)cc1)c1ccc(C(=O)Nc2ccc(NC3=NCCN3)cc2)cc1
T/C (dose: 2.0 mg/kg/injection, schedule: Q01DX010 (ip), vehicle: saline): 153 % of control and 157 % of control
T/C [1]: 173 % of control and 176 % of control
T/C [2]: 184 % of control and 203 % of control
T/C [3]: 88 % of control and 92 % of control

S=P(N1CC1)(N1CC1)N1CC1
T/C (dose: 0.75 mg/kg/injection, schedule: Q01DX010 (ip), vehicle: saline): 103 % of control and 107 % of control
T/C (dose: 1.5 mg/kg/injection, schedule: Q01DX010 (ip), vehicle: saline): 111 % of control
T/C [4]: 115 % of control and 123 % of control

Cn1c(N)nc2nc[nH]c2c1=S
T/C [5]: 100 % of control
T/C [6]: 106 % of control
T/C [7]: 100 % of control
T/C [8]: 106 % of control

CS(=O)(=O)OCCCl
T/C (dose: 9.4 mg/kg/injection, schedule: Q01DX010 (ip), vehicle: saline): 107 % of control
T/C (dose: 18.8 mg/kg/injection, schedule: Q01DX010 (ip), vehicle: saline): 96 % of control and 100 % of control
T/C (dose: 37.5 mg/kg/injection, schedule: Q01DX010 (ip), vehicle: saline): 92 % of control and 107 % of control
T/C (dose: 75.0 mg/kg/injection, schedule: Q01DX010 (ip), vehicle: saline): 92 % of control and 107 % of control

N#CCSc1ncnc2nc[nH]c12
T/C (dose: 15.0 mg/kg/injection, schedule: Q01DX010 (ip), vehicle: saline): 150 % of control
T/C (dose: 30.0 mg/kg/injection, schedule: Q01DX010 (ip), vehicle: saline): 115 % of control
T/C [9]: 173 % of control

CCN(CC)CCNc1ccc(C)c2sc3ccccc3c(=O)c12
T/C [10]: 111 % of control and 114 % of control
T/C [11]: 115 % of control

CN(Cc1cnc2nc(N)nc(N)c2n1)c1ccc(C(=O)N[C@@H](CCC(=O)O)C(=O)O)cc1
T/C (dose: 0.19 mg/kg/injection, schedule: Q01DX010 (ip), vehicle: other): 101 % of control and 106 % of control
T/C (dose: 0.38 mg/kg/injection, schedule: Q01DX010 (ip), vehicle: other): 100 % of control and 110 % of control and 116 % of control
T/C (dose: 0.75 mg/kg/injection, schedule: Q01DX010 (ip), vehicle: other): 114 % of control

COc1ccc2c(c1OC)C(=O)O[C@@H]2[C@H]1c2c(cc3c(c2OC)OCO3)CCN1C
T/C (dose: 62.5 mg/kg/injection, schedule: Q01DX010 (ip), vehicle: saline): 92 % of control

Nc1nc2n[nH]nc2c(=O)[nH]1
T/C (dose: 100.0 mg/kg/injection, schedule: Q01DX010 (ip), vehicle: alkali diluted with saline): 153 % of control
T/C (dose: 200.0 mg/kg/injection, schedule: Q01DX010 (ip), vehicle: alkali diluted with saline): 150 % of control

NC(Cc1ccc(N(CCCl)CCCl)cc1)C(=O)O (stereo unspecified)
T/C [12]: 153 % of control
T/C [5]: 175 % of control

S=c1nc[nH]c2nc[nH]c12
T/C (dose: 20.0 mg/kg/injection, schedule: Q01DX010 (ip), vehicle: alkali diluted with saline): 150 % of control
T/C (dose: 80.0 mg/kg/injection, schedule: Q01DX010 (ip), vehicle: alkali diluted with saline): 158 % of control

Nc1nc(N)c2nc(CNc3ccc(C(=O)NC(CCC(=O)O)C(=O)O)cc3)cnc2n1 (stereo unspecified)
T/C (dose: 0.05 mg/kg/injection, schedule: Q01DX010 (ip), vehicle: other): 111 % of control
T/C (dose: 0.1 mg/kg/injection, schedule: Q01DX010 (ip), vehicle: other): 107 % of control
T/C (dose: 0.2 mg/kg/injection, schedule: Q01DX010 (ip), vehicle: other): 123 % of control

CC(=O)Nc1ccc2nc3ccc(NC(C)=O)cc3[n+](-c3ccccc3)c2c1
T/C [10]: 121 % of control
T/C [13]: 114 % of control

Oc1cc(CN(CCCl)CCCl)c(O)cc1CN(CCCl)CCCl
T/C (dose: 0.63 mg/kg/injection, schedule: Q01DX010 (ip), vehicle: saline): 103 % of control and 114 % of control
T/C [14]: 114 % of control
T/C [15]: 117 % of control
T/C [12]: 96 % of control and 107 % of control

CS(=O)(=O)OCC(O)C(O)C(O)C(O)COS(C)(=O)=O (stereo unspecified)
T/C [10]: 100 % of control
T/C [13]: 100 % of control and 103 % of control
T/C [11]: 107 % of control
T/C (dose: 200.0 mg/kg/injection, schedule: Q01DX010 (ip), vehicle: saline): 121 % of control and 123 % of control

O=P1(N(CCCl)CCCl)NCCCO1 (stereo unspecified)
T/C (dose: 11.3 mg/kg/injection, schedule: Q01DX010 (ip), vehicle: saline): 106 % of control and 121 % of control
T/C (dose: 22.5 mg/kg/injection, schedule: Q01DX010 (ip), vehicle: saline): 86 % of control

Nc1nc(=S)c2ncn(C3OC(CO)C(O)C3O)c2[nH]1 (stereo unspecified)
T/C [1]: 110 % of control
T/C [3]: 90 % of control

CC[n+]1c(-c2ccccc2)c2cc(N)ccc2c2ccc(N)cc21
T/C [15]: 114 % of control
T/C [6]: 107 % of control

N=C(N)SCc1c2ccccc2c(CSC(=N)N)c2ccccc12
T/C [15]: 112 % of control
T/C [12]: 118 % of control
T/C [5]: 106 % of control
T/C [6]: 118 % of control

C[C@]12C=CC(=O)C=C1CC[C@@H]1[C@@H]2C(=O)C[C@@]2(C)[C@H]1CC[C@]2(O)C(=O)CO
T/C [16]: 95 % of control and 104 % of control

N#[N+]c1cnc([O-])[nH]c1=O
T/C [14]: 122 % of control
T/C [15]: 103 % of control
T/C [12]: 110 % of control
T/C [5]: 117 % of control

CC(=O)O[C@]1(C(C)=O)CC[C@H]2[C@@H]3C[C@H](C)C4=CC(=O)C=C[C@]4(C)[C@@]3(F)[C@@H](O)C[C@@]21C
T/C [16]: 93 % of control
T/C [17]: 93 % of control
T/C [18]: 93 % of control

CSc1ncnc2nc[nH]c12
T/C [10]: 115 % of control and 123 % of control

O=c1[nH]c(=O)n(C2CC(O)C(CO)O2)cc1F (stereo unspecified)
T/C [12]: 103 % of control
T/C [5]: 110 % of control and 111 % of control
T/C [6]: 123 % of control
T/C [7]: 150 % of control
T/C [8]: 161 % of control

CN(C)c1ccc(Nc2c3ccccc3nc3ccccc23)cc1
T/C (dose: 36.0 mg/kg/injection, schedule: Q01DX010 (ip), vehicle: saline): 121 % of control
T/C [8]: 157 % of control
T/C [9]: 153 % of control

c1ccc(CNc2ncnc3[nH]ncc23)cc1
T/C [2]: 103 % of control and 115 % of control
T/C [3]: 107 % of control

N=[N+]=CC(=O)OCC(N)C(=O)O (stereo unspecified)
T/C [19]: 153 % of control and 162 % of control
T/C [20]: 175 % of control and 176 % of control
T/C [10]: 87 % of control and 92 % of control

COc1cc(-c2ccc(Nc3ccccc3C(=O)O)c(OC)c2)ccc1Nc1ccccc1C(=O)O
T/C [20]: 100 % of control
T/C [10]: 103 % of control
T/C [13]: 110 % of control
T/C [11]: 110 % of control

S=P(N1CCOCC1)(N1CC1)N1CC1
T/C [15]: 100 % of control
T/C [12]: 100 % of control and 107 % of control
T/C [5]: 100 % of control and 119 % of control
T/C [6]: 107 % of control and 115 % of control

Nc1nc(SCc2ccccc2)c2[nH]cnc2n1
T/C [2]: 100 % of control and 121 % of control
T/C [3]: 114 % of control and 121 % of control
T/C (dose: 32.0 mg/kg/injection, schedule: Q01DX010 (ip), vehicle: saline): 117 % of control
T/C (dose: 64.0 mg/kg/injection, schedule: Q01DX010 (ip), vehicle: saline): 89 % of control

CCN(CCNc1ccc(C)c2sc3cc(Cl)ccc3c(=O)c12)CC(C)O (stereo unspecified)
T/C (dose: 31.3 mg/kg/injection, schedule: Q01DX010 (ip), vehicle: saline): 100 % of control
T/C (dose: 250.0 mg/kg/injection, schedule: Q01DX010 (ip), vehicle: saline): 92 % of control

O=C(O)CCCc1ccc(N(CCCl)CCCl)cc1
T/C (dose: 3.13 mg/kg/injection, schedule: Q01DX010 (ip), vehicle: saline): 96 % of control and 108 % of control
T/C [19]: 103 % of control and 108 % of control
T/C [20]: 116 % of control and 119 % of control

Cc1c2oc3c(C)ccc(C(=O)N[C@@H]4C(=O)N[C@H](C(C)C)C(=O)N5CCC[C@H]5C(=O)N(C)CC(=O)N(C)[C@@H](C(C)C)C(=O)O[C@H]4C)c3nc-2c(C(=O)N[C@@H]2C(=O)N[C@H](C(C)C)C(=O)N3CCC[C@H]3C(=O)N(C)CC(=O)N(C)[C@@H](C(C)C)C(=O)O[C@H]2C)c(N)c1=O (I: [aThr][dV]P[Sar][NMeV] / II: [aThr][dV]P[Sar][NMeV]; ester I:1-I:C, II:1-II:C; linker I:N-II:N via Actinocin(9to1))
T/C (dose: 12.5 micrograms/kg/injection, schedule: Q01DX010 (ip), vehicle: other): 115 % of control and 120 % of control
T/C (dose: 50.0 micrograms/kg/injection, schedule: Q01DX010 (ip), vehicle: other): 166 % of control

C[C@]12C=CC(=O)C=C1CC[C@@H]1[C@@H]2[C@@H](O)C[C@@]2(C)[C@H]1CC[C@]2(O)C(=O)CO
T/C [16]: 100 % of control and 103 % of control
T/C [17]: 100 % of control
T/C [18]: 100 % of control
T/C (dose: 100.0 mg/kg/injection, schedule: Q01DX010 (sc), vehicle: steriod suspending solution): 100 % of control

O=C(Nc1ccc(C2=NCCN2)cc1)c1ccc(C(=O)Nc2ccc(C3=NCCN3)cc2)c([N+](=O)[O-])c1
T/C [4]: 153 % of control and 175 % of control
T/C [2]: 188 % of control and 212 % of control
T/C (dose: 18.0 mg/kg/injection, schedule: Q01DX010 (ip), vehicle: saline): 91 % of control

From PubChem BioAssay AID320 (DTP/NCI, 2004)
